{
  "source": "patent US7381265B2",
  "about": "“Method for crystallization of a weakly acidic and/or weakly basic compound” (Hoffmann-La Roche Inc., priority 2005, dated 2008)",
  "experiment": "potentiometric solubility-pH profile titration (pSol)",
  "format": "physicochemical",
  "conditions": "FIG. 8",
  "text": "The above described titration e.g. of a weak base B from high to low pH-values is used for potentiometric determination of solubility profiles according to the so-called “pSol method” (see e.g. Avdeef, A., 1998, loc. cit.). However, in pSol titrations the phenomenon of a “perfect” buffer system is not encountered frequently because in order to obtain good titration results it is advisable to use only small amounts of the compound under investigation. This leads to a situation where the whole amount of the compound is dissolved before the maximal effective concentration corresponding to point 2 in FIG. 1 is reached. This is illustrated in FIG. 3, where reduction of the pH-value leads along the solubility profile until reaching the point denoted as 2′ in FIG. 3. […] Therefore, the total concentration of the compound remains constant at a value CT.\nMeasurements of solubility-pH profiles were carried out on a “pSol” apparatus (see e.g. Avdeef, A., 2001, loc. cit.). The potentiometric solubility measurement with the pSol apparatus takes as input parameters the weighted amount of the said compound, the volume of the solution, the measured pKa and the measured (or calculated) octanol/water partition coefficient, logP. […]",
  "data": [
    {"molecule": "COc1ccc2c3c1O[C@H]1[C@@H](O)C=C[C@H]4[C@@H](C2)N(C)CC[C@@]341", "note": "[codeine]", "values": [
      {"measurement": "pH at which the precipitation begins", "setting": "total concentration about 58 mg/mL for the titration", "result": "about 7"},
      {"measurement": "pH at which the precipitation begins", "setting": "total concentration of about 13 mg/mL for the titration", "result": "about 8"}
    ]}
  ]
}
